Measurements from the supplement of paper PMC3974653.
Counter-ions that a name gives are not always drawn.

Assays:
[1] = test system: MTT (mouse pheochromocytoma); assay: IC50 of cell viability (ATP content); AC50 where efficacy is positive; details: (24 or 48 h)
[2] = test system: MTT (mouse pheochromocytoma); assay: efficacy (maximal response) relative to doxorubicin = -100% and DMSO = 0%; higher = less inhibition of viability; details: (24 or 48 h)

IC50 of cell viability [1] | Structure (SMILES) | efficacy [2]
10.6 µM | C[n+]1c2cc(N)ccc2cc2ccc(N)cc21.[Cl-] [ACRIFLAVINIUM HYDROCHLORIDE] | -50.3%
0.718 µM | CCCSc1ccc2[nH]c(NC(=O)OC)nc2c1 [Albendazole] | -57.9%
0.596 µM | CC(C)C[C@@H](NC(=O)[C@@H](Cc1ccccc1)NC(=O)c1cnccn1)B(O)O [BORTEZOMIB] | -74.6%
11.9 µM | CC(C)(Cc1c[nH]c2ccccc12)NCC(O)COc1ccccc1C#N (centres undefined) [BUCINDOLOLUM] | -41.7%
18.8 µM | [H]/N=C(/c1ccc(OCCCCCC)c2ccccc12)N(CCCC)CCCC [BUNAMIDINE HYDROCHLORIDE] | -96.3%
4.22 µM | COc1ccc2cc3[n+](cc2c1OC)CCc1cc2c(cc1-3)OCO2 [Berberine chloride] | -53.9%
1.68 µM | CCN(CC)C1=CC=C(C=C1)C(\C2=CC=CC=C2)=C3\C=C/C(/C=C3)=[N+](\CC)CC [Brilliant Green] | -108%
2.37 µM | CC1=CC(=CC=C1N)C(\C2=CC=C(N)C=C2)=C3/C=CC(=N)C=C3 [C.I. Basic Violet 14, free base] | -47.4%
8.41 µM | CC(C)OC(=O)Nc1ccc2[nH]c(-c3cscn3)nc2c1 [CAMBENDAZOLE] | -45.2%
1.88 µM | CCCCCCNC(=O)N1\C=C(F)/C(=O)NC1=O [CARMOFUR] | -56.9%
2.99 µM | CC(=O)[C@]1(O)Cc2c(O)c3c(c(O)c2[C@@H](O[C@H]2C[C@H](N)[C@H](O)[C@H](C)O2)C1)C(=O)c1c(O)cccc1C3=O [CARUBICINUM] | -59.2%
2.66 µM | CC(=O)C1(O)Cc2c(O)c3c(c(O)c2C(OC2CC(N)C(O)C(C)O2)C1)C(=O)c1c(O)cccc1C3=O (centres undefined) [Carminomycin] | -48.5%
13.3 µM | Cc1nc2ccccc2n1Cc1ccc(Cl)cc1 [Chlormidazole] | -59%
16.8 µM | COc1cc(/C=C/C(=O)CC(=O)/C=C/c2ccc(O)c(OC)c2)ccc1O [Curcumin] | -79.7%
13.3 µM | COC(=O)[C@H]1[C@H]2C[C@@H]3c4[nH]c5ccccc5c4CCN3C[C@H]2C[C@@H](OC(=O)c2cc(OC)c(OC)c(OC)c2)[C@@H]1OC [DESERPIDINE] | -92.6%
9.44 µM | CC(C)(C)c1ccc(C(=O)CCCN2CCC(OC(c3ccccc3)c3ccccc3)CC2)cc1 [Ebastine] | -49.3%
3.6 µM | CCOc1ccc(Cc2nccc3cc(OCC)c(OCC)cc23)cc1OCC [Ethaverine hydrochloride] | -60%
11.9 µM | CCOc1ccc(/N=N/c2ccc(N)cc2N)cc1 [Ethoxazene hydrochloride] | -57.4%
16.8 µM | O=S(=O)([O-])c1ccc2c(/N=N/c3ccc(S(=O)(=O)[O-])c4ccccc34)c(O)c(S(=O)(=O)[O-])cc2c1 [FD & C Red Dye No. 2] | -95.8%
18.8 µM | COCC(=O)NC1=CC(SC2=CC=CC=C2)=CC=C1\N=C(/NC(=O)OC)NC(=O)OC [FEBANTEL] | -48%
2.66 µM | O=C(Nc1cccc(C(F)(F)F)c1)c1cc(Br)cc(Br)c1O [FLUOROSALAN] | -35.6%

The next lines start with the compound.

Structure (SMILES) | IC50 of cell viability [1] | efficacy [2]
CC[C@@]1(O)C[C@H](O[C@H]2C[C@@H](N(C)C)[C@@H](O[C@H]3C[C@@H](O)[C@@H](O[C@H]4CCC(=O)[C@@H](C)O4)[C@@H](C)O3)[C@@H](C)O2)c2c(cc3c(c2O)C(=O)c2c(O)cccc2C3=O)[C@H]1C(=O)OC [ACLARUBICIN HYDROCHLORIDE] | 2.11 µM | -41.5%
C[S+](CC[C@H](N)C(=O)O)C[C@H]1O[C@@H](n2cnc3c(N)ncnc32)[C@H](O)[C@@H]1O (some centres undefined) [ADEMETIONINE] | 21.1 µM | -49.1%
O=S(=O)([O-])c1cc(O)c2c(/N=N/c3ccc(Nc4ccccc4)c4c(S(=O)(=O)[O-])cccc34)cc(S(=O)(=O)[O-])cc2c1 [ANAZOLENUM NATRICUM] | 2.37 µM | -33.8%
CC[NH+](CC)CCCN(c1ccccc1)C1Cc2ccccc2C1 [APRINDINE HYDROCHLORIDE] | 26.6 µM | -107%
COc1ccc(CCN2CCC(Nc3nc4ccccc4n3Cc3ccc(F)cc3)CC2)cc1 [ASTEMIZOLE] | 16.8 µM | -74.8%
N=c1ccn2c(n1)O[C@H]1[C@H](O)[C@@H](CO)O[C@H]12 [Ancitabina] | 2.37 µM | -68.2%
C[C@@H]1CC[C@H]2[C@@H](C)C(=O)O[C@@H]3O[C@]4(C)CC[C@@H]1[C@@]32OO4 [Artemisinin] | 10.6 µM | -62%
CC[P](CC)(CC)=[Au][S][C@@H]1OC(COC(C)=O)[C@@H](OC(C)=O)[C@H](OC(C)=O)C1OC(C)=O (some centres undefined) [Auranofin] | 2.66 µM | -86.7%
NC/1=N/C(=O)N(/C=N1)[C@@H]2O[C@H](CO)[C@@H](O)[C@H]2O [Azacitidine] | 1.33 µM | -71.2%
C/C(=C(/CCOC(=O)C(C)C)SS/C(CCOC(=O)C(C)C)=C(\C)N(C=O)Cc1cnc(C)nc1N)N(C=O)Cc1cnc(C)nc1N [BISIBUTHIAMINE] | 21.1 µM | -43.4%
CC(C)(C)CC(C)(C)c1ccc(OCCOCC[N+](C)(C)Cc2ccccc2)cc1 [Benzethonium chloride] | 10.6 µM | -94.4%
O=[N+]([O-])C(Br)(CO)CO [Bronopol] | 15 µM | -58.4%
CCCCCCCCCCCCCCCC[N+](C)(C)Cc1ccccc1.O.[Cl-] [CETALKONIUM CHLORIDE] | 15 µM | -56.9%
CCCCCCCCCCCCCCCCOCCOCCOCCOCCOCCOCCOCCOCCOCCOCCOCCOCCOCCOCCOCCOCCOCCOCCOCCOCCO [CETOMACROGOL EMULSIFYING WAX] | 16.8 µM | -80.5%
CN/C(=N/C#N)NCCSCc1nc[nH]c1C [CIMETIDINE] | 13.3 µM | -40.4%
Cc1c(C(=O)O)c(O)cc2c1C(=O)c1c(O)c([C@H]3O[C@H](CO)[C@@H](O)[C@H](O)[C@H]3O)c(O)c(O)c1C2=O [COCHINEAL] | 16.8 µM | -45.4%

Structure (SMILES) | IC50 of cell viability [1] | efficacy [2]
C[C@@]12C(=O)OC(=O)[C@@]1(C)[C@H]1CC[C@H]2O1 [Cantharidin] | 1.28 µM | -39%
ClC(Cl)(Cl)SN1C(=O)C2C\C=C/CC2C1=O (centres undefined) [Captan] | 2.99 µM | -65.8%
CCCCCCCCCCCCCCCC[n+]1ccccc1 [Cetylpyridinium bromide] | 10.6 µM | -96.5%
CCCCCCCCCCCCCCCC[N+](C)(C)C [Cetyltrimethylammonium bromide] | 13.3 µM | -89.1%
CN(C)C1=CC=C(C=C1)C(C2=CC=C(C=C2)N(C)C)=C/3\C=C/C(/C=C3)=[N+](C)C [Chlorure de methylrosanilinum] | 23.7 µM | -111%
CC/1=C/C(=O)N(O)/C(=C1)C2CCCCC2 [Ciclopirox ethanolamine] | 4.53 µM | -84.9%
COC/1=C/C=C2\C(=C/C1=O)[C@H](CCC3=CC(=C(OC)C(=C23)OC)OC)NC(C)=O [Colchicine] | 0.473 µM | -84.8%
CCNC(=O)[C@@H]1CCCN1C(=O)[C@H](CCCNC(=N)N)NC(=O)[C@H](CC(C)C)NC(=O)[C@@H](Cc1c[nH]c2ccccc12)NC(=O)[C@H](Cc1ccc(O)cc1)NC(=O)[C@H](CO)NC(=O)[C@H](Cc1c[nH]c2ccccc12)NC(=O)[C@H](Cc1c[nH]cn1)NC(=O)[C@@H]1CCC(=O)N1 [DESLORELIN ACETATE] | 2.99 µM | -88.5%
CCN1/C(=C/C=C/C=C/c2sc3ccccc3[n+]2CC)Sc2ccccc21 [DITHIAZANINE IODIDE] | 18.8 µM | -109%
Cc1cc(N)c2ccccc2[n+]1CCCCCCCCCC[n+]1c(C)cc(N)c2ccccc21 [Dequalinium dichloride] | 11.4 µM | -81.5%
CCCCCCCC[N+](C)(C)CCCCCCCC [Dioctyl Dimethyl Ammonium Chloride] | 0.119 µM | -39.1%
CCCCCCCC[N+](C)(C)CCCCCCCC [Dioctyldimethylammonium chloride] | 0.531 µM | -48.6%
[O-][n+]1ccccc1SSc1cccc[n+]1[O-] [Dipyrithione] | 1.5 µM | -81%
CCCCCCCCCCCC[N+](C)(C)CCOc1ccccc1 [Domiphen bromide] | 15 µM | -99.3%
N#Cc1nn(-c2c(Cl)cc(C(F)(F)F)cc2Cl)c(N)c1[S+]([O-])C(F)(F)F (centres undefined) [FIPRONIL] | 23.7 µM | -88.6%
